From paper PMC5218480 (PLoS ONE, 2017) come the findings set out here.

This test deals with MV-4-11 cells. The test is described as follows: Gene expression microarray analysis (Affymetrix PrimeView) and GSEA. Set-up: RFU PODN (11730768_x_at) / Fold change /veh PODN (11730768_x_at) / RFU LINC00158 (11744669_a_at) / Fold change /veh LINC00158 (11744669_a_at) / RFU DUSP10 (11751237_a_at) / Fold change /veh DUSP10 (11751237_a_at) / RFU ID3 (11757404_x_at) / Fold change /veh ID3 (11757404_x_at) / RFU PLEKHG5 (11737974_s_at) / Fold change /veh PLEKHG5 (11737974_s_at) / RFU LRRC4B (11730491_at) / Fold change /veh LRRC4B (11730491_at) / RFU GIMAP4 (11747438_a_at) / Fold change /veh GIMAP4 (11747438_a_at) / RFU KRT8 (11758183_x_at) / Fold change /veh KRT8 (11758183_x_at) / RFU CNN1 (11734310_a_at) / Fold change /veh CNN1 (11734310_a_at) / RFU VPS37D (11726825_at) / Fold change /veh VPS37D (11726825_at) / RFU C10orf10 (11716522_x_at) / Fold change /veh C10orf10 (11716522_x_at) / RFU KIR2DL2 /// KIR2DL4 /// KIR2DL5A /// KIR2DL5B /// KIR2DS1 /// KIR2DS2 /// KIR2DS3 /// KIR2DS4 /// KIR3DL3 /// KIR3DL3 /// KIR3DS1 (11738374_at) / Fold change /veh KIR2DL2 /// KIR2DL4 /// KIR2DL5A /// KIR2DL5B /// KIR2DS1 /// KIR2DS2 /// KIR2DS3 /// KIR2DS4 /// KIR3DL3 /// KIR3DL3 /// KIR3DS1 (11738374_at) / RFU C1QL1 (11718748_at) / Fold change /veh C1QL1 (11718748_at) / RFU TMPRSS4 (11747572_a_at) / Fold change /veh TMPRSS4 (11747572_a_at) / RFU HAMP (11756126_x_at) / Fold change /veh HAMP (11756126_x_at) / RFU RNFT2 (11725882_a_at) / Fold change /veh RNFT2 (11725882_a_at) / RFU NR4A2 (11747474_a_at) / Fold change /veh NR4A2 (11747474_a_at) / RFU ABCC12 (11746883_a_at) / Fold change /veh ABCC12 (11746883_a_at) / RFU TMEM136 (11760407_x_at) / Fold change /veh TMEM136 (11760407_x_at) / RFU CLDN22 /// WWC2 (11732394_at) / Fold change /veh CLDN22 /// WWC2 (11732394_at) / RFU HLA-DPB1 (11760878_x_at) / Fold change /veh HLA-DPB1 (11760878_x_at) / RFU SPINT1 (11716480_a_at) / Fold change /veh SPINT1 (11716480_a_at) / RFU GAP43 (11754022_s_at) / Fold change /veh GAP43 (11754022_s_at) / RFU A4GNT (11735810_at) / Fold change /veh A4GNT (11735810_at) / RFU PRB3 (11715151_x_at) / Fold change /veh PRB3 (11715151_x_at) / RFU TUBB4B (11761932_at) / Fold change /veh TUBB4B (11761932_at) / RFU CAPN14 (11732068_a_at) / Fold change /veh CAPN14 (11732068_a_at) / RFU TMCC2 (11721928_a_at) / Fold change /veh TMCC2 (11721928_a_at) / RFU IRGQ (11745062_a_at) / Fold change /veh IRGQ (11745062_a_at) / RFU FAM174B (11720279_a_at) / Fold change /veh FAM174B (11720279_a_at) / RFU TMPRSS4 (11748680_a_at) / Fold change /veh TMPRSS4 (11748680_a_at) / RFU FAM212B (11763350_a_at) / Fold change /veh FAM212B (11763350_a_at) / RFU PLEKHG5 (11743358_a_at) / Fold change /veh PLEKHG5 (11743358_a_at) / RFU ZSCAN30 (11745921_a_at) / Fold change /veh ZSCAN30 (11745921_a_at) / RFU CMKLR1 (11741424_a_at) / Fold change /veh CMKLR1 (11741424_a_at) / RFU LOC101060620 /// MAPK8IP1 (11723275_at) / Fold change /veh LOC101060620 /// MAPK8IP1 (11723275_at) / RFU SPTSSB (11747773_x_at) / Fold change /veh SPTSSB (11747773_x_at) / RFU PRSS12 (11739890_at) / Fold change /veh PRSS12 (11739890_at) / RFU BIN1 (11741810_x_at) / Fold change /veh BIN1 (11741810_x_at) / RFU WNT11 (11732464_a_at) / Fold change /veh WNT11 (11732464_a_at) / RFU C10orf10 (11716521_a_at) / Fold change /veh C10orf10 (11716521_a_at) / RFU C5orf56 (11738089_at) / Fold change /veh C5orf56 (11738089_at) / RFU CYB561 (11721691_x_at) / Fold change /veh CYB561 (11721691_x_at) / RFU ANKRD19P (11752326_a_at) / Fold change /veh ANKRD19P (11752326_a_at) / RFU OR2T12 /// OR2T33 /// OR2T8 (11738714_s_at) / Fold change /veh OR2T12 /// OR2T33 /// OR2T8 (11738714_s_at) / RFU VCAN (11748164_a_at) / Fold change /veh VCAN (11748164_a_at) / RFU JSRP1 (11732532_at) / Fold change /veh JSRP1 (11732532_at) / RFU KRTAP10-11 (11738290_x_at) / Fold change /veh KRTAP10-11 (11738290_x_at) / RFU MYO3A (11730013_a_at) / Fold change /veh MYO3A (11730013_a_at) / RFU EBF3 (11725865_a_at) / Fold change /veh EBF3 (11725865_a_at) / RFU CAMK2N1 (11719241_x_at) / Fold change /veh CAMK2N1 (11719241_x_at) / RFU C5orf56 (11738088_a_at) / Fold change /veh C5orf56 (11738088_a_at) / RFU OLFML3 (11715873_a_at) / Fold change /veh OLFML3 (11715873_a_at) / RFU LOC100653217 /// NTM (11731650_a_at) / Fold change /veh LOC100653217 /// NTM (11731650_a_at) / RFU MAPK11 (11762145_a_at) / Fold change /veh MAPK11 (11762145_a_at) / RFU FIZ1 (11724087_x_at) / Fold change /veh FIZ1 (11724087_x_at) / RFU OASL (11726364_x_at) / Fold change /veh OASL (11726364_x_at) / RFU SOX15 (11748057_x_at) / Fold change /veh SOX15 (11748057_x_at) / RFU CD79A (11719716_a_at) / Fold change /veh CD79A (11719716_a_at) / RFU HIST1H1D (11736915_at) / Fold change /veh HIST1H1D (11736915_at) / RFU CASKIN2 (11723855_a_at) / Fold change /veh CASKIN2 (11723855_a_at) / RFU LOC730098 (11760151_x_at) / Fold change /veh LOC730098 (11760151_x_at) / RFU OR4N2 (11742367_at) / Fold change /veh OR4N2 (11742367_at) / RFU PRRT2 (11749266_a_at) / Fold change /veh PRRT2 (11749266_a_at) / RFU SNX32 (11753110_a_at) / Fold change /veh SNX32 (11753110_a_at) / RFU CDHR5 (11726645_a_at) / Fold change /veh CDHR5 (11726645_a_at) / RFU RCAN1 (11760418_a_at) / Fold change /veh RCAN1 (11760418_a_at) / RFU FAM167A (11723789_a_at) / Fold change /veh FAM167A (11723789_a_at) / RFU FAM26E (11764081_at) / Fold change /veh FAM26E (11764081_at) / RFU ISYNA1 (11749810_s_at) / Fold change /veh ISYNA1 (11749810_s_at) / RFU ACY1 (11761880_at) / Fold change /veh ACY1 (11761880_at) / RFU 11764098_at / Fold change /veh 11764098_at / RFU SAMD14 (11745864_x_at) / Fold change /veh SAMD14 (11745864_x_at) / RFU NPB (11741838_a_at) / Fold change /veh NPB (11741838_a_at) / RFU TMPRSS6 (11731388_a_at) / Fold change /veh TMPRSS6 (11731388_a_at) / RFU KRTAP10-2 (11738614_at) / Fold change /veh KRTAP10-2 (11738614_at) / RFU ARHGAP8 /// PRR5-ARHGAP8 (11727945_x_at) / Fold change /veh ARHGAP8 /// PRR5-ARHGAP8 (11727945_x_at) / RFU KRTAP5-7 /// NADSYN1 (11734609_at) / Fold change /veh KRTAP5-7 /// NADSYN1 (11734609_at) / RFU RASL12 (11751679_a_at) / Fold change /veh RASL12 (11751679_a_at) / RFU CDKN2B (11736163_a_at) / Fold change /veh CDKN2B (11736163_a_at) / RFU PRF1 (11729649_at) / Fold change /veh PRF1 (11729649_at) / RFU, ZNF638 /// ZNF638-IT1 / Fold change vs veh, ZNF638 /// ZNF638-IT1 / RFU, PANK3 / Fold change vs veh, PANK3 / RFU, SH3YL1 / Fold change vs veh, SH3YL1 / RFU, ZEB2 / Fold change vs veh, ZEB2 / RFU, NRIP1 / Fold change vs veh, NRIP1 / RFU, PTTG1IP / Fold change vs veh, PTTG1IP / RFU, CAPN2 / Fold change vs veh, CAPN2 / RFU, MED14 / Fold change vs veh, MED14 / RFU, SNORA58 / Fold change vs veh, SNORA58 / RFU, C1orf63 / Fold change vs veh, C1orf63 / RFU, LRRFIP1 / Fold change vs veh, LRRFIP1 / RFU, NDUFAF7 / Fold change vs veh, NDUFAF7 / RFU, SLC12A2 / Fold change vs veh, SLC12A2 / RFU, IBTK / Fold change vs veh, IBTK / RFU, ESF1 / Fold change vs veh, ESF1 / Fold change vs veh, TMEM50B / RFU, TAOK1 / Fold change vs veh, TAOK1 / RFU, ACBD3 / Fold change vs veh, ACBD3 / RFU, TMA16 / Fold change vs veh, TMA16 / RFU, RWDD3 / Fold change vs veh, RWDD3 / RFU, BCAT1 / Fold change vs veh, BCAT1 / RFU, EDEM3 / Fold change vs veh, EDEM3 / RFU, TMEM33 / Fold change vs veh, TMEM33 / RFU, WDR75 / Fold change vs veh, WDR75 / RFU, AHCTF1 / Fold change vs veh, AHCTF1 / RFU, TFRC / Fold change vs veh, TFRC / RFU, ZDHHC17 / Fold change vs veh, ZDHHC17 / RFU, NOM1 / Fold change vs veh, NOM1 / RFU, ARL8B / Fold change vs veh, ARL8B / RFU, ZBTB11 / Fold change vs veh, ZBTB11 / RFU, TAMM41 / Fold change vs veh, TAMM41 / RFU, KIAA1704 /// LOC100996395 / Fold change vs veh, KIAA1704 /// LOC100996395 / RFU, ING1 / Fold change vs veh, ING1 / RFU, TRMT61B / Fold change vs veh, TRMT61B / RFU, FUBP3 / Fold change vs veh, FUBP3 / RFU, TP53 / Fold change vs veh, TP53 / RFU, TNKS2 / Fold change vs veh, TNKS2 / RFU, ZFP14 / Fold change vs veh, ZFP14 / RFU, ACTR2 / Fold change vs veh, ACTR2 / RFU, PPP3R1 / Fold change vs veh, PPP3R1 / RFU, PIK3R1 / Fold change vs veh, PIK3R1 / RFU, HNRNPA1 / Fold change vs veh, HNRNPA1 / RFU, RNF170 / Fold change vs veh, RNF170 / RFU, ZNF28 / Fold change vs veh, ZNF28 / RFU, RNGTT / Fold change vs veh, RNGTT / RFU, OGT / Fold change vs veh, OGT / RFU, BRD1 / Fold change vs veh, BRD1 / RFU, MARS / Fold change vs veh, MARS / RFU, ZNF655 / Fold change vs veh, ZNF655 / RFU, FAHD1 / Fold change vs veh, FAHD1 / RFU, BDP1 / Fold change vs veh, BDP1 / RFU, LRRCC1 / Fold change vs veh, LRRCC1 / RFU, ARID1A / Fold change vs veh, ARID1A / RFU, ZNF146 / Fold change vs veh, ZNF146 / RFU, ZNF330 / Fold change vs veh, ZNF330 / RFU, GPN3 / Fold change vs veh, GPN3 / RFU, C9orf123 / Fold change vs veh, C9orf123 / RFU, N4BP2L2 / Fold change vs veh, N4BP2L2 / RFU, ARFIP1 / Fold change vs veh, ARFIP1 / RFU, FAM179B / Fold change vs veh, FAM179B / RFU, BCL10 / Fold change vs veh, BCL10 / RFU, UHRF1BP1L / Fold change vs veh, UHRF1BP1L / RFU, BET1 / Fold change vs veh, BET1 / RFU, CNOT2 / Fold change vs veh, CNOT2 / RFU, ZNF268 / Fold change vs veh, ZNF268 / Fold change vs veh, ZNF507 / RFU, DGCR2 / Fold change vs veh, DGCR2 / RFU, WDSUB1 / Fold change vs veh, WDSUB1 / Fold change vs veh, HSP90B1 /// MIR3652 / RFU, ADSS / Fold change vs veh, ADSS / RFU, GK / Fold change vs veh, GK / RFU, ZNF148 / Fold change vs veh, ZNF148 / RFU, TAF9 / Fold change vs veh, TAF9 / RFU, SLC1A5 / Fold change vs veh, SLC1A5 / RFU, SLMO2 / Fold change vs veh, SLMO2 / RFU, ABCC4 / Fold change vs veh, ABCC4 / RFU, LOC101060439 /// RAP1B / Fold change vs veh, LOC101060439 /// RAP1B / RFU, RFX7 / Fold change vs veh, RFX7 / RFU, GTPBP10 / Fold change vs veh, GTPBP10 / RFU, CNEP1R1 / Fold change vs veh, CNEP1R1 / RFU, BIVM-ERCC5 /// ERCC5 / Fold change vs veh, BIVM-ERCC5 /// ERCC5 / RFU, ILF3 / Fold change vs veh, ILF3 / RFU 11762660_at / Fold change /veh 11762660_at / RFU VCAN (11757783_s_at) / Fold change /veh VCAN (11757783_s_at) / RFU DDX43 (11728927_at) / Fold change /veh DDX43 (11728927_at) / RFU KRT8 (11758188_x_at) / Fold change /veh KRT8 (11758188_x_at) / RFU NKD1 (11759106_at) / Fold change /veh NKD1 (11759106_at) / RFU SRD5A1 (11742802_a_at) / Fold change /veh SRD5A1 (11742802_a_at) / RFU TPSAB1 /// TPSB2 (11721975_s_at) / Fold change /veh TPSAB1 /// TPSB2 (11721975_s_at) / RFU GSTM3 (11746129_a_at) / Fold change /veh GSTM3 (11746129_a_at) / RFU IL23R (11737362_x_at) / Fold change /veh IL23R (11737362_x_at) / RFU TMEM51 (11727254_a_at) / Fold change /veh TMEM51 (11727254_a_at) / RFU PIWIL2 (11732686_x_at) / Fold change /veh PIWIL2 (11732686_x_at) / RFU ORM1 (11744905_x_at) / Fold change /veh ORM1 (11744905_x_at) / RFU CCDC152 (11743942_at) / Fold change /veh CCDC152 (11743942_at) / RFU ECM1 (11717891_a_at) / Fold change /veh ECM1 (11717891_a_at) / RFU IL23R (11748794_a_at) / Fold change /veh IL23R (11748794_a_at) / RFU TNFAIP8L3 (11732012_x_at) / Fold change /veh TNFAIP8L3 (11732012_x_at) / RFU MBOAT4 (11741988_at) / Fold change /veh MBOAT4 (11741988_at) / RFU 11764193_at / Fold change /veh 11764193_at / RFU TMEM53 (11763286_at) / Fold change /veh TMEM53 (11763286_at) / RFU MAGEB2 (11727129_at) / Fold change /veh MAGEB2 (11727129_at) / RFU TMEM200A (11744735_a_at) / Fold change /veh TMEM200A (11744735_a_at) / RFU CCDC152 (11751479_a_at) / Fold change /veh CCDC152 (11751479_a_at) / RFU FAM211A (11726209_a_at) / Fold change /veh FAM211A (11726209_a_at) / RFU RGS16 (11746705_a_at) / Fold change /veh RGS16 (11746705_a_at) / RFU VCAN (11755009_s_at) / Fold change /veh VCAN (11755009_s_at) / RFU RHOB (11743442_s_at) / Fold change /veh RHOB (11743442_s_at) / RFU RGS16 (11720943_a_at) / Fold change /veh RGS16 (11720943_a_at) / RFU RGS16 (11720944_at) / Fold change /veh RGS16 (11720944_at) / RFU, VPS4B / Fold change vs veh, VPS4B / RFU, CREB1 / Fold change vs veh, CREB1 / RFU, DNAJC13 / Fold change vs veh, DNAJC13 / RFU, GNAQ / Fold change vs veh, GNAQ / RFU, CDK5R1 / Fold change vs veh, CDK5R1 / RFU, ZRANB3 / Fold change vs veh, ZRANB3 / RFU, CUL4A / Fold change vs veh, CUL4A / RFU, CCNY / Fold change vs veh, CCNY / RFU, UFL1 / Fold change vs veh, UFL1 / RFU, COG3 / Fold change vs veh, COG3 / RFU, DIAPH2 / Fold change vs veh, DIAPH2 / RFU, SKA2 / Fold change vs veh, SKA2 / RFU, AFF3 / Fold change vs veh, AFF3 / RFU, LMF1 / Fold change vs veh, LMF1 / RFU, IPO11 / Fold change vs veh, IPO11 / RFU, DFFB / Fold change vs veh, DFFB / RFU, FOXP1 / Fold change vs veh, FOXP1 / RFU, CARD8 / Fold change vs veh, CARD8 / RFU, STRN3 / Fold change vs veh, STRN3 / RFU, ADK / Fold change vs veh, ADK / RFU, RASSF2 / Fold change vs veh, RASSF2 / RFU, WIPF1 / Fold change vs veh, WIPF1 / RFU, LARP1B / Fold change vs veh, LARP1B / RFU, RASA1 / Fold change vs veh, RASA1 / RFU, RB1 / Fold change vs veh, RB1 / RFU, PPFIA1 / Fold change vs veh, PPFIA1 / RFU, MAT2A / Fold change vs veh, MAT2A / RFU, CCT5 / Fold change vs veh, CCT5 / RFU, WDR92 / Fold change vs veh, WDR92 / RFU, CUX1 / Fold change vs veh, CUX1 / RFU, TTC7A / Fold change vs veh, TTC7A / RFU, TMEM135 / Fold change vs veh, TMEM135 / RFU, DEPTOR / Fold change vs veh, DEPTOR / RFU, CPM / Fold change vs veh, CPM / RFU, DNAJB6 / Fold change vs veh, DNAJB6 / RFU, CACNA2D3 / Fold change vs veh, CACNA2D3 / RFU, DTX4 / Fold change vs veh, DTX4 / RFU, TFCP2 / Fold change vs veh, TFCP2 / RFU, GMCL1 /// GMCL1P1 / Fold change vs veh, GMCL1 /// GMCL1P1 / RFU, AEBP2 / Fold change vs veh, AEBP2 / RFU, SNHG1 /// SNORD22 /// SNORD25 /// SNORD26 /// SNORD27 /// SNORD28 /// SNORD29 /// SNORD31 / Fold change vs veh, SNHG1 /// SNORD22 /// SNORD25 /// SNORD26 /// SNORD27 /// SNORD28 /// SNORD29 /// SNORD31 / Fold change (Aza/veh), C12orf56 (ProbeSet 11735607_a_at) / Fold change (ACY-1035/veh), C12orf56 (ProbeSet 11735607_a_at) / Fold change (Aza/veh), FGFR1OP (ProbeSet 11751329_s_at) / Fold change (ACY-1035/veh), FGFR1OP (ProbeSet 11751329_s_at) / Fold change (Aza/veh), VPS36 (ProbeSet 11739960_a_at) / Fold change (ACY-1035/veh), VPS36 (ProbeSet 11739960_a_at) / RFU SYPL1 (11715823_x_at) / Fold change /veh SYPL1 (11715823_x_at) / RFU IGFBP7 (11715501_s_at) / Fold change /veh IGFBP7 (11715501_s_at) / RFU REEP3 (11722064_at) / Fold change /veh REEP3 (11722064_at) / RFU IGLL1 (11728026_x_at) / Fold change /veh IGLL1 (11728026_x_at): dose or concentration left out as unconfirmed. Type of test: cell-based, human. Conditions: ProbeSet 11723944_a_at; LIST B.

`Nc1ccc(-c2cccs2)cc1NC(=O)c1ccc2c(c1)cc(C1CC1)n2CCN1CCOCC1` [ACY-1035]: the “Fold change vs veh, PTTG1IP” value came out at 0.91.
